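Compound exposure: 48 hours, 5 concentrations, 96-well plates. At the GI50, growth is halved. TGI marks complete inhibition of growth.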

One assay deals with IGROV1 ovarian. As to the kind of experiment: inhibition of tumour cell growth, NCI panel, 48 h.
In the case of `Clc1ccc(C(c2ccc(Cl)cc2)c2ccccn2)cc1`, the TGI was over 100 µM.
On the same count and under the same terms, next, `CC(=O)OC1COC(n2ccc3cc(Br)c([N+](=O)[O-])cc32)C(OC(C)=O)C1OC(C)=O` (centres undefined): over 100 µM; `c1ccc(COc2cccc3ccc[n+](Cc4ccccc4)c23)cc1`: 25.7 µM; `O=S1(=O)OCCOS(=O)(=O)C1Br`: over 100 µM.
Turning to `CC1=CC(O)(c2ccc(-c3ccccc3Cl)cc2)OC1=O` (centres undefined), the TGI was over 100 µM.
Same read-out and setting: next, `C#CC1(O)CCC2C3CCc4cc(Oc5nc(F)nc(-c6c7ccccc7c7sc8ccccc8n67)n5)ccc4C3CC[C@@]21C` (some centres undefined): over 100 µM; `Cc1ccc(NC(=O)c2cc3cc(N=Nc4ccccc4C(=O)O)ccc3oc2=O)cc1`: over 100 µM; `COc1ccc(S(=O)(=O)NNS(C)(=O)=O)cc1`: over 100 µM.
Compound `O=C(/C=C\c1ccc(Cl)c(Cl)c1)c1ccc(Cl)cc1Cl` came in with a TGI of 49.8 µM.
The same measure, in the same setting: next, `CCN1c2ccccc2C(C(SC)S(=O)(=O)c2ccc(C)cc2)c2c1[nH]c(=O)n(C)c2=O` (centres undefined): over 100 µM.
Still for that read-out and setting: next, `COC(OC)C(C)CC(=O)N(C)C` (centres undefined): over 100 µM.

The next assay has as its system MALME-3M melanoma. As to the kind of experiment: inhibition of tumour cell growth, NCI panel, 48 h.
`Clc1ccc(C(c2ccc(Cl)cc2)c2ccccn2)cc1` came in with a TGI of 41.2 µM.
On the same count and under the same terms, next, `CCCCCCN(CCCCCC)C(=O)Cc1c2n(c3ccccc13)Cc1ccccc1-2`: over 100 µM; `CC(=O)OC1COC(n2ccc3cc(Br)c([N+](=O)[O-])cc32)C(OC(C)=O)C1OC(C)=O` (centres undefined): 72.5 µM; `c1ccc(COc2cccc3ccc[n+](Cc4ccccc4)c23)cc1`: 19.9 µM.
Still for that read-out and setting: under `O=S1(=O)OCCOS(=O)(=O)C1Br` stands over 100 µM; under `CC1=CC(O)(c2ccc(-c3ccccc3Cl)cc2)OC1=O` (centres undefined), over 100 µM.
In the case of `OCCCCCNCc1cc2cc3c(cc2c2cc(OCc4ccccc4)ccc12)OCO3`, the GI50 is 1.66 µM and the TGI stood at 3.1 µM.
Turning to `C#CC1(O)CCC2C3CCc4cc(Oc5nc(F)nc(-c6c7ccccc7c7sc8ccccc8n67)n5)ccc4C3CC[C@@]21C` (some centres undefined), the TGI was over 100 µM.
The same measure, in the same setting: under `Cc1ccc(NC(=O)c2cc3cc(N=Nc4ccccc4C(=O)O)ccc3oc2=O)cc1` stands over 100 µM; under `COc1ccc(S(=O)(=O)NNS(C)(=O)=O)cc1`, over 100 µM; under `O=C(/C=C\c1ccc(Cl)c(Cl)c1)c1ccc(Cl)cc1Cl`, 35.5 µM.
On the same count and under the same terms, under `CCN1c2ccccc2C(C(SC)S(=O)(=O)c2ccc(C)cc2)c2c1[nH]c(=O)n(C)c2=O` (centres undefined) stands over 100 µM.

The next assay deals with LOX IMVI melanoma. As to the kind of experiment: inhibition of tumour cell growth, NCI panel, 48 h.
With `Clc1ccc(C(c2ccc(Cl)cc2)c2ccccn2)cc1`, the TGI turned out to be 30.4 µM.
Same read-out and setting: under `CCCCCCN(CCCCCC)C(=O)Cc1c2n(c3ccccc13)Cc1ccccc1-2` stands over 100 µM; under `CC(=O)OC1COC(n2ccc3cc(Br)c([N+](=O)[O-])cc32)C(OC(C)=O)C1OC(C)=O` (centres undefined), 40.7 µM.
Same read-out and setting: under `CC1=CC(O)(c2ccc(-c3ccccc3Cl)cc2)OC1=O` (centres undefined) stands over 100 µM.
The same measure, in the same setting: under `Cc1ccc(NC(=O)c2cc3cc(N=Nc4ccccc4C(=O)O)ccc3oc2=O)cc1` stands over 100 µM; under `COc1ccc(S(=O)(=O)NNS(C)(=O)=O)cc1`, over 100 µM.
Take `O=C(/C=C\c1ccc(Cl)c(Cl)c1)c1ccc(Cl)cc1Cl`: the GI50 is 2.05 µM and the TGI is 18.2 µM.
In turn, `CCN1c2ccccc2C(C(SC)S(=O)(=O)c2ccc(C)cc2)c2c1[nH]c(=O)n(C)c2=O` (centres undefined) yielded a TGI of over 100 µM.
The same measure, in the same setting: next, `COC(OC)C(C)CC(=O)N(C)C` (centres undefined): over 100 µM.

The next assay deals with HCT-116 colon. As to the kind of experiment: inhibition of tumour cell growth, NCI panel, 48 h.
Compound `CCCCCCN(CCCCCC)C(=O)Cc1c2n(c3ccccc13)Cc1ccccc1-2` yielded a TGI of over 100 µM.
On the same count and under the same terms, next, `O=S1(=O)OCCOS(=O)(=O)C1Br`: over 100 µM.
With `OCCCCCNCc1cc2cc3c(cc2c2cc(OCc4ccccc4)ccc12)OCO3`, the GI50 was 1.46 µM and the TGI was determined as 2.81 µM.
`C#CC1(O)CCC2C3CCc4cc(Oc5nc(F)nc(-c6c7ccccc7c7sc8ccccc8n67)n5)ccc4C3CC[C@@]21C` (some centres undefined) gave a TGI of over 100 µM.
Same read-out and setting: next, `Cc1ccc(NC(=O)c2cc3cc(N=Nc4ccccc4C(=O)O)ccc3oc2=O)cc1`: over 100 µM; `COc1ccc(S(=O)(=O)NNS(C)(=O)=O)cc1`: over 100 µM.
Consider `O=C(/C=C\c1ccc(Cl)c(Cl)c1)c1ccc(Cl)cc1Cl`, for which the GI50 was 2.68 µM and the TGI was over 100 µM.
`CCN1c2ccccc2C(C(SC)S(=O)(=O)c2ccc(C)cc2)c2c1[nH]c(=O)n(C)c2=O` (centres undefined) had a TGI of over 100 µM.
Regarding `COC(OC)C(C)CC(=O)N(C)C` (centres undefined), the TGI is over 100 µM.

The next assay relates to RPMI-8226 leukemia. As to the kind of experiment: inhibition of tumour cell growth, NCI panel, 48 h.
In turn, `Clc1ccc(C(c2ccc(Cl)cc2)c2ccccn2)cc1` showed a TGI of 84.5 µM.
The same measure, in the same setting: next, `CCCCCCN(CCCCCC)C(=O)Cc1c2n(c3ccccc13)Cc1ccccc1-2`: over 100 µM.
The same measure, in the same setting: under `CC(=O)OC1COC(n2ccc3cc(Br)c([N+](=O)[O-])cc32)C(OC(C)=O)C1OC(C)=O` (centres undefined) stands over 100 µM; under `c1ccc(COc2cccc3ccc[n+](Cc4ccccc4)c23)cc1`, 14.2 µM; under `O=S1(=O)OCCOS(=O)(=O)C1Br`, over 100 µM.
Regarding `CC1=CC(O)(c2ccc(-c3ccccc3Cl)cc2)OC1=O` (centres undefined), the TGI was over 100 µM.
For the compound `C#CC1(O)CCC2C3CCc4cc(Oc5nc(F)nc(-c6c7ccccc7c7sc8ccccc8n67)n5)ccc4C3CC[C@@]21C` (some centres undefined), the TGI is over 100 µM.
In turn, `Cc1ccc(NC(=O)c2cc3cc(N=Nc4ccccc4C(=O)O)ccc3oc2=O)cc1` displayed a TGI of over 100 µM.
In turn, `COc1ccc(S(=O)(=O)NNS(C)(=O)=O)cc1` came in with a TGI of over 100 µM.
For the compound `O=C(/C=C\c1ccc(Cl)c(Cl)c1)c1ccc(Cl)cc1Cl`, the GI50 is 2.35 µM and the TGI came out at 41.4 µM.
`CCN1c2ccccc2C(C(SC)S(=O)(=O)c2ccc(C)cc2)c2c1[nH]c(=O)n(C)c2=O` (centres undefined): the TGI was over 100 µM.
The same measure, in the same setting: under `COC(OC)C(C)CC(=O)N(C)C` (centres undefined) stands over 100 µM.

The next assay deals with M14 melanoma. As to the kind of experiment: inhibition of tumour cell growth, NCI panel, 48 h.
`Clc1ccc(C(c2ccc(Cl)cc2)c2ccccn2)cc1` displayed a TGI of 38 µM.
The same measure, in the same setting: under `CCCCCCN(CCCCCC)C(=O)Cc1c2n(c3ccccc13)Cc1ccccc1-2` stands over 100 µM; under `CC(=O)OC1COC(n2ccc3cc(Br)c([N+](=O)[O-])cc32)C(OC(C)=O)C1OC(C)=O` (centres undefined), over 100 µM; under `c1ccc(COc2cccc3ccc[n+](Cc4ccccc4)c23)cc1`, 60.2 µM.
Same read-out and setting: next, `O=S1(=O)OCCOS(=O)(=O)C1Br`: over 100 µM.
Compound `CC1=CC(O)(c2ccc(-c3ccccc3Cl)cc2)OC1=O` (centres undefined) returned a TGI of over 100 µM.
For the compound `OCCCCCNCc1cc2cc3c(cc2c2cc(OCc4ccccc4)ccc12)OCO3`, the GI50 is 1.94 µM and the TGI is 3.45 µM.
In the case of `C#CC1(O)CCC2C3CCc4cc(Oc5nc(F)nc(-c6c7ccccc7c7sc8ccccc8n67)n5)ccc4C3CC[C@@]21C` (some centres undefined), the TGI turned out to be 98.3 µM.
In the case of `Cc1ccc(NC(=O)c2cc3cc(N=Nc4ccccc4C(=O)O)ccc3oc2=O)cc1`, the TGI was over 100 µM.
Same read-out and setting: under `COc1ccc(S(=O)(=O)NNS(C)(=O)=O)cc1` stands over 100 µM; under `O=C(/C=C\c1ccc(Cl)c(Cl)c1)c1ccc(Cl)cc1Cl`, 52.4 µM.
Same read-out and setting: next, `COC(OC)C(C)CC(=O)N(C)C` (centres undefined): over 100 µM.

In the next assay the test system is HOP-92 NSCLC. As to the kind of experiment: inhibition of tumour cell growth, NCI panel, 48 h.
With `Clc1ccc(C(c2ccc(Cl)cc2)c2ccccn2)cc1`, the TGI stood at 30.1 µM.
Still for that read-out and setting: under `CCCCCCN(CCCCCC)C(=O)Cc1c2n(c3ccccc13)Cc1ccccc1-2` stands 79.7 µM; under `CC(=O)OC1COC(n2ccc3cc(Br)c([N+](=O)[O-])cc32)C(OC(C)=O)C1OC(C)=O` (centres undefined), 42 µM.
Still for that read-out and setting: next, `c1ccc(COc2cccc3ccc[n+](Cc4ccccc4)c23)cc1`: 34.2 µM; `O=S1(=O)OCCOS(=O)(=O)C1Br`: over 100 µM.
On the same count and under the same terms, next, `CC1=CC(O)(c2ccc(-c3ccccc3Cl)cc2)OC1=O` (centres undefined): over 100 µM.
On to `OCCCCCNCc1cc2cc3c(cc2c2cc(OCc4ccccc4)ccc12)OCO3`, for which the GI50 was 1.23 µM and the TGI was 2.84 µM.
Turning to `C#CC1(O)CCC2C3CCc4cc(Oc5nc(F)nc(-c6c7ccccc7c7sc8ccccc8n67)n5)ccc4C3CC[C@@]21C` (some centres undefined), the TGI was over 100 µM.
Same read-out and setting: under `CCN1c2ccccc2C(C(SC)S(=O)(=O)c2ccc(C)cc2)c2c1[nH]c(=O)n(C)c2=O` (centres undefined) stands over 100 µM; under `COC(OC)C(C)CC(=O)N(C)C` (centres undefined), over 100 µM.

A further assay deals with HCT-15 colon. As to the kind of experiment: inhibition of tumour cell growth, NCI panel, 48 h.
Turning to `Clc1ccc(C(c2ccc(Cl)cc2)c2ccccn2)cc1`, the TGI came out at 38 µM.
Still for that read-out and setting: next, `CCCCCCN(CCCCCC)C(=O)Cc1c2n(c3ccccc13)Cc1ccccc1-2`: over 100 µM; `CC(=O)OC1COC(n2ccc3cc(Br)c([N+](=O)[O-])cc32)C(OC(C)=O)C1OC(C)=O` (centres undefined): over 100 µM.
On the same count and under the same terms, under `c1ccc(COc2cccc3ccc[n+](Cc4ccccc4)c23)cc1` stands over 100 µM; under `CC1=CC(O)(c2ccc(-c3ccccc3Cl)cc2)OC1=O` (centres undefined), over 100 µM.
On to `OCCCCCNCc1cc2cc3c(cc2c2cc(OCc4ccccc4)ccc12)OCO3`, for which the GI50 is 1.59 µM and the TGI turned out to be 3.05 µM.
`C#CC1(O)CCC2C3CCc4cc(Oc5nc(F)nc(-c6c7ccccc7c7sc8ccccc8n67)n5)ccc4C3CC[C@@]21C` (some centres undefined) registered a TGI of over 100 µM.
For `Cc1ccc(NC(=O)c2cc3cc(N=Nc4ccccc4C(=O)O)ccc3oc2=O)cc1`, the TGI was over 100 µM.
As to `O=C(/C=C\c1ccc(Cl)c(Cl)c1)c1ccc(Cl)cc1Cl`, the GI50 was 58 µM and the TGI is over 100 µM.
On to `CCN1c2ccccc2C(C(SC)S(=O)(=O)c2ccc(C)cc2)c2c1[nH]c(=O)n(C)c2=O` (centres undefined), for which the TGI was over 100 µM.
Same read-out and setting: next, `COC(OC)C(C)CC(=O)N(C)C` (centres undefined): over 100 µM.

A further assay relates to SF-539 CNS. As to the kind of experiment: inhibition of tumour cell growth, NCI panel, 48 h.
As for `Clc1ccc(C(c2ccc(Cl)cc2)c2ccccn2)cc1`, the TGI worked out at 33.7 µM.
On to `CCCCCCN(CCCCCC)C(=O)Cc1c2n(c3ccccc13)Cc1ccccc1-2`, for which the TGI was over 100 µM.
On the same count and under the same terms, under `CC(=O)OC1COC(n2ccc3cc(Br)c([N+](=O)[O-])cc32)C(OC(C)=O)C1OC(C)=O` (centres undefined) stands 44.4 µM; under `c1ccc(COc2cccc3ccc[n+](Cc4ccccc4)c23)cc1`, over 100 µM; under `O=S1(=O)OCCOS(=O)(=O)C1Br`, over 100 µM.
With `CC1=CC(O)(c2ccc(-c3ccccc3Cl)cc2)OC1=O` (centres undefined), the TGI is over 100 µM.
Consider `OCCCCCNCc1cc2cc3c(cc2c2cc(OCc4ccccc4)ccc12)OCO3`, for which the GI50 was 1.64 µM and the TGI was determined as 3 µM.
Turning to `C#CC1(O)CCC2C3CCc4cc(Oc5nc(F)nc(-c6c7ccccc7c7sc8ccccc8n67)n5)ccc4C3CC[C@@]21C` (some centres undefined), the TGI was over 100 µM.
Same read-out and setting: next, `Cc1ccc(NC(=O)c2cc3cc(N=Nc4ccccc4C(=O)O)ccc3oc2=O)cc1`: 98.5 µM; `COc1ccc(S(=O)(=O)NNS(C)(=O)=O)cc1`: over 100 µM.
The same measure, in the same setting: under `O=C(/C=C\c1ccc(Cl)c(Cl)c1)c1ccc(Cl)cc1Cl` stands 37.7 µM; under `CCN1c2ccccc2C(C(SC)S(=O)(=O)c2ccc(C)cc2)c2c1[nH]c(=O)n(C)c2=O` (centres undefined), over 100 µM; under `COC(OC)C(C)CC(=O)N(C)C` (centres undefined), over 100 µM.

For the origin of these results see PubChem BioAssay (NCI).
